# Columns and labels:
# ROS-GC1 [1] = target: T1, ROS-GC1 (Bos taurus, UniProt P55203, F570S); experiment: biochemical
# T1 construct: gene GUCY2D
# ROS-GC1 [2] = target: T2, ROS-GC1 (Bos taurus, UniProt P55203); experiment: biochemical
# T2 construct: gene GUCY2D
# T2 sequence (P55203 57-1110): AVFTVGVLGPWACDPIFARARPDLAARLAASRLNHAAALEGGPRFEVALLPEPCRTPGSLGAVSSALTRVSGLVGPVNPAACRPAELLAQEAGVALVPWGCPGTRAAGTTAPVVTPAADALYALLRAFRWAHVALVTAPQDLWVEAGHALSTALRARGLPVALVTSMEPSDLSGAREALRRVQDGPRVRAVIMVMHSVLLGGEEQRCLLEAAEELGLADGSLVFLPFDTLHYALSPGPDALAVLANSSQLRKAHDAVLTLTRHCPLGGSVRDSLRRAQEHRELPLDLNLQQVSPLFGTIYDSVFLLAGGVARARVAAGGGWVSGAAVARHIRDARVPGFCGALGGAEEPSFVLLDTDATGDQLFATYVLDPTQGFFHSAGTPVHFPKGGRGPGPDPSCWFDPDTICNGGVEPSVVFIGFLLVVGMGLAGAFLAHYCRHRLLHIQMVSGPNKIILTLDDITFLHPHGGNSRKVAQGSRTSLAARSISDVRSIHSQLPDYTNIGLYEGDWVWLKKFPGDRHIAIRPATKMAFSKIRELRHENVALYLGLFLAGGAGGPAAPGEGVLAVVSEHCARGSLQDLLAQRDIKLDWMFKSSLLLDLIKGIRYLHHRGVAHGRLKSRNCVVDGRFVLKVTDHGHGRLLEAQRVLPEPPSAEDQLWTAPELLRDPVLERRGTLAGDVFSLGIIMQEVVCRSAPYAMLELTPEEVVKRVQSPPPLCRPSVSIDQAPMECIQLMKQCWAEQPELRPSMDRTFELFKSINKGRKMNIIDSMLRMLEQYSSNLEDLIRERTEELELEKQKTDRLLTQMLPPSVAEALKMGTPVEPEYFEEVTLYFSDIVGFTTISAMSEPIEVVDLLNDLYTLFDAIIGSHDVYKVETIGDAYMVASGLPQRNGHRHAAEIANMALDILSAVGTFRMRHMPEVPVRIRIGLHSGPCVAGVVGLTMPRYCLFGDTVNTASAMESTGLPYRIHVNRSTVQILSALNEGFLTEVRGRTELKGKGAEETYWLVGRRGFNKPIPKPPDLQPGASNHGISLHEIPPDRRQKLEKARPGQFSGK
# T1 sequence (P55203 57-1110 F570S): as the sequence (P55203 57-1110) above, with F514S counted along it
smiles,measurement,setting,value
O=C(O)O [bicarbonate],EC50,ROS-GC1 [1],25 mM
same,EC50,ROS-GC1 [2],16 mM
